{"source": "patent US11077141B2", "about": "“Anti-tumor T cell immunity induced by high dose radiation” (The Board of Trustees of the Leland Stanford Junior …, priority 2012, dated 2021)", "key": {"[1]": {"test_system": "CT26 luc+ tumor cells", "experiment": "Bioluminescence imaging of luciferase transduced CT26 tumors in RAG2-/- mice given LTI and CY with or without T cells", "set-up": "species or system BALB/c RAG2-/- mice", "conditions": "mouse, in vivo", "from_the_text": "Cell lines. The CT26 cell line (an N-nitro-N-methylurethane-induced BALB/c murine colon carcinoma) was purchased from ATCC (Manassas, Va.). The 4T1 cell line (spontaneously arising) was also obtained from ATCC. The 4T1-LUC/GFP and CT26-LUC/GFP cell lines were lentiviraly transduced. The lentiviral vector pHR-IG was made by Dr. Yoshitaka Akagi. The GFP-firefly luciferase fusion (GLF) gene was subcloned from pJW.GFP-yLuc (kindly provided by Dr. M. H. Bachmann) into pHR2 to generate pHR2-GLF. Lentiviral particles expressing GLF were prepared as described before. […]. WT 4T1 and CT26 cells were seeded in a 6 well plate at 0.25×10^6 cells/well and incubated overnight in a 37° C. incubator. Titrated virus was then used to transduce the cell lines in the presence of protamine sulfate (10 μg/ml) to enhance transduction efficiency. Stable lentiviral transductants were then sorted 4 times for GFP fluorescence (100% purity) using a FACS DIVA cell sorter. Sorted cells were expanded and screened for bioluminescence using an Xenogen IVIS spectrum (Caliper Life Sciences; Hopkinton, Mass.), as well as GFP. Cell lines were maintained in RPMI-1640 complete medium supplemented with 10% fetal calf serum, L-glutamine, 2 mercaptoethanol, streptomycin and penicillin.\nIn vivo BLI imaging. In vivo BLI was performed according to the method of Edinger et al. Briefly, mice were injected intraperitoneally with luciferin ([…]). Ten minutes later, mice were imaged using an IVIS100 charge-coupled device imaging system (Xenogen) for 5 minutes. Imaging data were analyzed and quantified with Living Image software (Xenogen)."}, "[2]": {"test_system": "CT26 tumors", "experiment": "Survival of CT26 tumor-bearing RAG-2-/- mice given 30 Gy LTI with or without CY and T cells", "format": "in vivo, BALB/c RAG2-/- mice", "conditions": "30 Gy LTI at day 21", "method": "Animals. Wild-type male BALB/c (H-2^d) mice, and male BALB/c RAG2^−/− mice, were purchased from Jackson Laboratories (Bar Harbor, Me.). Mice were 5-8 weeks old.\nIrradiation. Total body irradiation was performed with a Philips X-ray unit (200 kV, 10 mA; Philips Electronic Instruments Inc., Rahway, N.J.) at a rate of 84 cGy/min with a 0.5 mm Cu filter. For local tumor irradiation, unanesthetized mice were placed in lead jigs through which established tumors in the hind quarter were protruded for irradiation to an area of approximately 2 cm diameter. Irradiation was performed with a Phillips X-ray unit operated at 200 kV with the dose rate of 1.21 Gy/min (20 mÅ with added filtration of 0.5 mm copper, the distance from X-ray source to the target of 31 cm, and a half value layer of 1.3 mm copper).\nCell preparation, splenectomy, and collection of T cells for autologous transplantation. Single cell suspensions of bone marrow and spleen were prepared according to previously described procedures. […]\nFACS Aria (Becton Dickinson, Mountain View, Calif.) was used for analysis with FlowJo software (TreeStar, Ashland, Oreg.). After sorting cells were checked by FACS reanalysis and determined to be >99% pure. […]"}, "[3]": {"test_system": "4T1 luc+ breast tumor", "experiment": "4T1 breast tumor metastasis model: LTI (3 daily doses of 20 Gy), CY and cryopreserved autologous T cells", "format": "in vivo, BALB/c mice", "conditions": "21 day 4T1 tumors; 3 daily doses of 20 Gy LTI, then single dose of CY", "method": "Irradiation. […] For local tumor irradiation, unanesthetized mice were placed in lead jigs through which established tumors in the hind quarter were protruded for irradiation to an area of approximately 2 cm diameter. Irradiation was performed with a Phillips X-ray unit operated at 200 kV with the dose rate of 1.21 Gy/min (20 mÅ with added filtration of 0.5 mm copper, the distance from X-ray source to the target of 31 cm, and a half value layer of 1.3 mm copper).\nEnriched cells were stained with anti-TCR-allophycocyanin (APC) and anti-CD4 or anti-CD8-fluorescein isothiocyanate (FITC) mAbs to check for purity, and preparations were uniformly at least 95% pure.\nFACS Aria (Becton Dickinson, Mountain View, Calif.) was used for analysis with FlowJo software (TreeStar, Ashland, Oreg.). After sorting cells were checked by FACS reanalysis and determined to be >99% pure. Collected T cells were cryopreserved with 10% DMSO and frozen in liquid nitrogen.\nIn vivo BLI imaging. In vivo BLI was performed according to the method of Edinger et al. Briefly, mice were injected intraperitoneally with luciferin (10 μg/g body weight). Ten minutes later, mice were imaged using an IVIS100 charge-coupled device imaging system (Xenogen) for 5 minutes. Imaging data were analyzed and quantified with Living Image software (Xenogen)."}}}
{"molecule": "O=P1(N(CCCl)CCCl)NCCCO1", "note": "(stereo not shown) [CY, cyclophosphamide]", "values": [{"measurement": "day by which all of the mice died", "setting": "[1]", "result": "≤ 107"}, {"measurement": "death or survival of mice by day 35", "setting": "[1]", "result": "2 of 5"}, {"measurement": "tumor signal / tumor growth by BLI", "setting": "[1]", "result": "continued tumor growth"}, {"measurement": "survival (none of the mice survived beyond)", "setting": "[2]", "result": "≤ 80", "unit": "days"}, {"measurement": "mice died by day 84", "setting": "[3]", "result": "6 of 8"}, {"measurement": "mice relapsed at day 98", "setting": "[3]", "result": 1}, {"measurement": "tumor growth", "setting": "[3]", "result": "progression of tumor growth was slowed"}]}
